Laboratory results from patent US10736909B2, “Use of trehalose for treatment of neurological diseases” (JUNAXO, INC., priority 2016, dated 2020).
Read-outs that look alike come from different tables or passages of the source.

Columns and labels:
rats receiving A53T αSYN = test: Cylinder test of forelimb asymmetry in AAV1/2 A53T αSYN rat model of PD; type: in vivo, Sprague-Dawley rats; conditions: Day 42, 2.67 g/kg, once per day p.o.
Method: Thirty female, Sprague-Dawley rats (280-325 g) split into 5 groups (N=4-8 rats/group) and received a unilateral injection in to the substantia nigra (at co-ordinates AP −5.2 mm; ML −2 mm relative to Bregma, DV −7.5 mm relative to skull over SN) of AAV1/2 delivering A53T alpha-synuclein (AAV1/2 αSYN) or empty vector (control). The A53T αSyn expressed is of the human sequence. Its control is an empty AAV1/2 vector of the same serotype and viral construction. Both AAV1/2 vectors were diluted in sterile phosphate buffered saline and administered at a volume of 2 μl. […]
Animal behavior was assessed pre-surgery and at 3 and 6 weeks post-surgery. Behaviour was assessed by the cylinder test to assess forelimb asymmetry with asymmetry indicating an imbalance in striatal dopaminergic function between the side injected with AAV1/2 αSYN and the contralateral side. […] Striatal tissue from both hemispheres was collected and analysed for dopamine levels. Substantia nigra tissue was collected and analysed for the number of TH^+ve cells and the amount of A53T αSYN measured. Plasma and brain (cerebellum) samples were collected and trehalose levels analysed by LC-MS/MS.

[1] = Plasma, brain and CSF trehalose levels in macaques after 17 weeks administration; type: in vivo, cynomolgus monkeys (Macaca fascicularis); conditions: 2.67 g/kg/day p.o. 17 weeks; for concentration at 1 h: female, cynomolgus monkey, po, 1 h after final administration
From the text: Twenty-five (25), female cynomolgus monkeys (Macaca fascicularis, 8.0-9.3 years of age, 3.2-4.4 kg) were split into 3 groups (n=8-9/group) and received stereotaxic injection of AAV vectors,either a vector expressing mutant A53T human alpha-synculein (AAV1/2-A53T-alpha-synuclein) or an empty vector (AAV1/2-EV), Genedetect, Auckland, New Zealand) into the substantia nigra. The A53T aSyn expressed is of the human sequence the AAV1/2-EV is a control vector of the same serotype and viral construction. Precise stereotaxic coordinates for all surgeries were calculated prior to surgery from individual monkey MRI scans. Injections containing the AAV1/2-A53T-alpha-synuclein or empty vector were made at a speed of 0.5 μl/min and a volume of 7 μl (at a viral titre of 1.7×10^12 active particles per ml) into 4 sites of each hemisphere of the substantia nigra. Commencing on the day of surgery and continuing for 17 weeks, macaques received either vehicle (sterile drinking water) or trehalose (2.67 g/kg/day) administered as a single daily administration (2.67 g/kg/day, p.o). The macaques were then killed and striatal tissue from both hemispheres was collected and analysed for dopamine and dopamine transporter (DAT) levels. Substantia nigra tissue was collected and analysed for the number of TH^+ve cells and the amount of αSYN measured. Plasma, CSF and brain (cerebellum) samples were collected and trehalose levels analysed by LC-MS/MS.
Single plasma, brain and CSF samples were collected 1 h after the final administration of trehalose. One-hour post-dose corresponds to approximately the Tmax of orally administered trehalose in macaques. The plasma, brain and CSF trehalose levels were 2449±884 ng/ml, 129±35 ng/g and 33±9 ng/ml respectively.

AAV α-synuclein rat = conditions: 2 and 5% in drinking water; He et al. 2015; cited from earlier work
[2] = Extrapolation from animal data to human plasma exposure; conditions: oral, humans, 2.67 g/kg, extrapolated from rat and macaque data, read-out: trehalose plasma Cmax (estimated)
Method: On a dose per body weight basis, trehalose produced very similar plasma and brain levels in rats and macaques (see FIG. 3 and Tables 6 and 7) when dosed with 2.67 g/kg/day. We also know that a trehalose dose of 2.67 g/kg/day was efficacious in the rat and non-human primate. Therefore, it is contemplated that an efficacious dose for humans includes 2.67 g/kg which is estimated to produce a trehalose plasma Cmax of ˜10000 ng/ml. From the rat data it is also clear that a dose of 0.89 g/kg will be ineffective.

[3] = test system: Transgenic α-synuclein mouse; conditions: 2% trehalose in drinking water; Tanji et al. 2015; cited from earlier work

OC[C@H]1O[C@H](O[C@H]2O[C@H](CO)[C@@H](O)[C@H](O)[C@H]2O)[C@H](O)[C@@H](O)[C@@H]1O [trehalose, (2R,3S,4S,5R,6R)-2-(Hydroxymethyl)-6-[(2R,3R,4S,5S,6R)-3,4,5-trihydroxy-6-(hydroxymethyl)oxan-2-yl]oxyoxane-3,4,5-triol]
% asymmetry (mean ± s.e.mean) (rats receiving A53T αSYN): reduced the asymmetry | correlation of trehalose level in the CSF with level in the brain [1]: significantly correlated | concentration at 1 h ([1]; CSF, read-out: CSF trehalose level): 33 ± 9 ng/mL | concentration at 1 h ([1]; brain (cerebellum), read-out: brain trehalose level): 129 ± 35 ng/g | concentration at 1 h ([1]; plasma, read-out: plasma trehalose level): 2450 ± 884 ng/mL | Effect (AAV α-synuclein rat): Neuroprotection | Cmax [2]: ~10000 ng/mL | Effect (autophagy) [3]: Increased
